Laboratory results taken from PubChem BioAssay AID2060615 (Molecular Pharmacology Branch, DTP, NCI, 2025).
Values joined by “and” are separate entries in the source; they are usually repeats but may differ in a detail not shown here. Equal values may be shown once.

Tested on: 496974-208-R-J2-PDC complex spheroids, growth % test/control
Assay: Anticancer human tumor 496974-208-R-J2-PDC patient-derived pancreatic carcinoma cell line growth inhibition [CLK]
Conditions: for viability, T/C: stronger effect = lower value; active means viability on the fitted dose curve at most 10% of control; inactive means the rest
How it was run: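 Patient-derived tumor cells grown as complex spheroids with HUVEC endothelial cells and mesenchymal stem cells, treated with drug combinations. Concentrations descend in half-log steps from near clinical Cmax, or from 10 microM if Cmax unknown.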

[1] = curve of first compound, second compound 0.0316 µM
[2] = curve of first compound, second compound 0.1 µM
[3] = curve of first compound, second compound 0.316 µM
[4] = curve of first compound, second compound 1 µM
[5] = curve of first compound, second compound 3.16 µM
[6] = curve of first compound, second compound 10 µM
[7] = second compound 0.0316 µM, first compound 0.0316 µM
[8] = second compound 0.0316 µM, first compound 0.1 µM
[9] = second compound 0.0316 µM, first compound 0.316 µM
[10] = second compound 0.0316 µM, first compound 1 µM
[11] = second compound 0.0316 µM, first compound 3.16 µM
[12] = second compound 0.0316 µM, first compound 10 µM
[13] = second compound 0.1 µM, first compound 0.0316 µM
[14] = second compound 0.1 µM, first compound 0.1 µM
[15] = second compound 0.1 µM, first compound 0.316 µM
[16] = second compound 0.1 µM, first compound 1 µM
[17] = second compound 0.1 µM, first compound 3.16 µM
[18] = second compound 0.1 µM, first compound 10 µM
[19] = second compound 0.316 µM, first compound 0.0316 µM
[20] = second compound 0.316 µM, first compound 0.1 µM
[21] = second compound 0.316 µM, first compound 0.316 µM
[22] = second compound 0.316 µM, first compound 1 µM
[23] = second compound 0.316 µM, first compound 3.16 µM
[24] = second compound 0.316 µM, first compound 10 µM
[25] = second compound 1 µM, first compound 0.0316 µM
[26] = second compound 1 µM, first compound 0.1 µM
[27] = second compound 1 µM, first compound 0.316 µM
[28] = second compound 1 µM, first compound 1 µM
[29] = second compound 1 µM, first compound 3.16 µM
[30] = second compound 1 µM, first compound 10 µM
[31] = second compound 3.16 µM, first compound 0.0316 µM
[32] = second compound 3.16 µM, first compound 0.1 µM
[33] = second compound 3.16 µM, first compound 0.316 µM
[34] = second compound 3.16 µM, first compound 1 µM
[35] = second compound 3.16 µM, first compound 3.16 µM
[36] = second compound 3.16 µM, first compound 10 µM
[37] = second compound 10 µM, first compound 0.0316 µM
[38] = second compound 10 µM, first compound 0.1 µM
[39] = second compound 10 µM, first compound 0.316 µM
[40] = second compound 10 µM, first compound 1 µM
[41] = second compound 10 µM, first compound 3.16 µM
[42] = second compound 10 µM, first compound 10 µM
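Further: spheroids exposed to the drugs for 7 days before readout.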
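Wherever viability, T/C is given: 100% = DMSO vehicle control wells.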

O=c1[nH]cc(F)c(=O)[nH]1 + CN1CCN(c2cc(C(=O)Nc3cc4cc(-c5cnn(C)c5)ccc4cn3)ccn2)CC1
4.19 µM: IC50 [2]
active: viability, T/C [19] 7.23% | viability, T/C [20] 6.68% | viability, T/C [21] 5.78% | viability, T/C [22] 6.41% | viability, T/C [23] 6.09% | viability, T/C [24] 6.36% | viability, T/C [25] 0.41% | viability, T/C [26] 0.51% | viability, T/C [27] 0.5% | viability, T/C [28] 0.43% | viability, T/C [29] 0.32% | viability, T/C [30] 0.55% | viability, T/C [31] 0.44% | viability, T/C [32] 0.46% | viability, T/C [33] 0.41% | viability, T/C [34] 0.57% | viability, T/C [35] 0.41% | viability, T/C [36] 2.84% | viability, T/C [37] 0.24% | viability, T/C [38] 0.41% | viability, T/C [39] 0.35% | viability, T/C [40] 0.27% | viability, T/C [41] 1.4% | viability, T/C [42] 1.8%
inactive: viability, T/C [7] 108% | viability, T/C [8] 99.2% | viability, T/C [9] 99.3% | viability, T/C [10] 76.8% | viability, T/C [11] 60.1% | viability, T/C [12] 42% | viability, T/C [13] 83.5% | viability, T/C [14] 83.7% | viability, T/C [15] 76.3% | viability, T/C [16] 68.1% | viability, T/C [17] 54.2% | viability, T/C [18] 37.4%
< 0.0316 µM: IC50 [3] | IC50 [4] | IC50 [5] | IC50 [6]
5.87 µM: IC50 [1]

CC(Nc1ccc2c(c1)OCCn1cc(N3C(=O)OCC3C(F)F)nc1-2)C(N)=O (configuration not stated) + CNC(=O)c1ccc(Nc2nc(OC3CCCC3)c3c(-c4ccc5nc(C)oc5c4)c[nH]c3n2)c(OC)c1
0.184 µM: IC50 [2]
< 0.0316 µM: IC50 [6]
0.15 µM: IC50 [1]
inactive: viability, T/C [7] 87.2% | viability, T/C [8] 55.2% | viability, T/C [9] 38.5% | viability, T/C [10] 23.6% | viability, T/C [11] 16.9% | viability, T/C [12] 9.1% | viability, T/C [13] 70.5% | viability, T/C [14] 63.7% | viability, T/C [15] 37.5% | viability, T/C [16] 23.7% | viability, T/C [17] 15.5% | viability, T/C [18] 10.6% | viability, T/C [19] 76.6% | viability, T/C [20] 48.4% | viability, T/C [21] 30.1% | viability, T/C [22] 23.4% | viability, T/C [23] 15.5% | viability, T/C [24] 9.62% | viability, T/C [25] 58.8% | viability, T/C [26] 46.8% | viability, T/C [27] 32.3% | viability, T/C [28] 20.1% | viability, T/C [29] 18.4% | viability, T/C [30] 9.57% | viability, T/C [31] 56.9% | viability, T/C [32] 38.6% | viability, T/C [33] 28.3% | viability, T/C [34] 20% | viability, T/C [35] 17.6% | viability, T/C [36] 12.8% | viability, T/C [37] 47.2% | viability, T/C [38] 38.8% | viability, T/C [39] 24.6% | viability, T/C [40] 19% | viability, T/C [41] 15.6% | viability, T/C [42] 13.7%
0.0687 µM: IC50 [4]
0.0955 µM: IC50 [3]
0.0492 µM: IC50 [5]

Cn1ncnc1[C@H]1c2n[nH]c(=O)c3cc(F)cc(c23)N[C@@H]1c1ccc(F)cc1 + CNC(=O)c1ccc(Nc2nc(OC3CCCC3)c3c(-c4ccc5nc(C)oc5c4)c[nH]c3n2)c(OC)c1
> 0.1 µM: IC50 [1] | IC50 [2] | IC50 [3] | IC50 [4] | IC50 [5] | IC50 [6]
inactive: viability, T/C (second compound 0.0316 µM, first compound 0.000316 µM) 103% | viability, T/C (second compound 0.0316 µM, first compound 0.001 µM) 110% | viability, T/C (second compound 0.0316 µM, first compound 0.00316 µM) 95% | viability, T/C (second compound 0.0316 µM, first compound 0.01 µM) 100% | viability, T/C [7] 98.2% | viability, T/C [8] 85.7% | viability, T/C (second compound 0.1 µM, first compound 0.000316 µM) 77% | viability, T/C (second compound 0.1 µM, first compound 0.001 µM) 83.3% | viability, T/C (second compound 0.1 µM, first compound 0.00316 µM) 83.1% | viability, T/C (second compound 0.1 µM, first compound 0.01 µM) 94.6% | viability, T/C [13] 74.6% | viability, T/C [14] 78% | viability, T/C (second compound 0.316 µM, first compound 0.000316 µM) 82% | viability, T/C (second compound 0.316 µM, first compound 0.001 µM) 84% | viability, T/C (second compound 0.316 µM, first compound 0.00316 µM) 99.9% | viability, T/C (second compound 0.316 µM, first compound 0.01 µM) 80.4% | viability, T/C [19] 78.3% | viability, T/C [20] 67.9% | viability, T/C (second compound 1 µM, first compound 0.000316 µM) 72.4% | viability, T/C (second compound 1 µM, first compound 0.001 µM) 73.5% | viability, T/C (second compound 1 µM, first compound 0.00316 µM) 68.9% | viability, T/C (second compound 1 µM, first compound 0.01 µM) 76.7% | viability, T/C [25] 74.9% | viability, T/C [26] 65% | viability, T/C (second compound 3.16 µM, first compound 0.000316 µM) 69.3% | viability, T/C (second compound 3.16 µM, first compound 0.001 µM) 62.8% | viability, T/C (second compound 3.16 µM, first compound 0.00316 µM) 57.4% | viability, T/C (second compound 3.16 µM, first compound 0.01 µM) 61.5% | viability, T/C [31] 67.2% | viability, T/C [32] 65% | viability, T/C (second compound 10 µM, first compound 0.000316 µM) 55.5% | viability, T/C (second compound 10 µM, first compound 0.001 µM) 55% | viability, T/C (second compound 10 µM, first compound 0.00316 µM) 55.7% | viability, T/C (second compound 10 µM, first compound 0.01 µM) 54.1% | viability, T/C [37] 54.2% | viability, T/C [38] 52.7%

O=c1[nH]cc(F)c(=O)[nH]1
6.83 µM and > 10 µM: IC50 (curve of compound)
inactive: viability, T/C (compound 0.0316 µM) 114% and 115% | viability, T/C (compound 0.1 µM) 103% and 95.1% | viability, T/C (compound 0.316 µM) 101% | viability, T/C (compound 1 µM) 78.4% and 79.6% | viability, T/C (compound 3.16 µM) 55.1% and 71.4% | viability, T/C (compound 10 µM) 47.6% and 53.4%

C=CC(=O)N1CCN(c2nc(=O)n(-c3c(C)ccnc3C(C)C)c3nc(-c4c(O)cccc4F)c(F)cc23)C(C)C1 (configuration not stated)
inactive: viability, T/C (compound 0.0316 µM) 112% and 102% | viability, T/C (compound 0.1 µM) 108% and 87.1% | viability, T/C (compound 0.316 µM) 109% and 91.7% | viability, T/C (compound 1 µM) 111% and 97.7% | viability, T/C (compound 3.16 µM) 107% and 108% | viability, T/C (compound 10 µM) 86.8% and 80.7%
> 10 µM: IC50 (curve of compound)

COC1C=CCC(C)C(C)S(=O)(=O)NC(=O)c2ccc3c(c2)N(CC2CCC21)CC1(CCCc2cc(Cl)ccc21)CO3 (configuration not stated) + CNC(=O)c1ccc(Nc2nc(OC3CCCC3)c3c(-c4ccc5nc(C)oc5c4)c[nH]c3n2)c(OC)c1
0.0521 µM: IC50 [4]
inactive: viability, T/C [7] 103% | viability, T/C [8] 60.8% | viability, T/C [9] 87.7% | viability, T/C [10] 71.9% | viability, T/C [11] 70% | viability, T/C [12] 26.3% | viability, T/C [13] 76.7% | viability, T/C [14] 55.6% | viability, T/C [15] 69.1% | viability, T/C [16] 60.2% | viability, T/C [17] 53.1% | viability, T/C [18] 29.7% | viability, T/C [19] 50.7% | viability, T/C [20] 57.1% | viability, T/C [21] 46.9% | viability, T/C [22] 41.3% | viability, T/C [23] 38.1% | viability, T/C [24] 49.9% | viability, T/C [25] 59.7% | viability, T/C [26] 36.7% | viability, T/C [27] 39.8% | viability, T/C [28] 34.4% | viability, T/C [29] 38% | viability, T/C [30] 30.6% | viability, T/C [31] 53.5% | viability, T/C [32] 36.3% | viability, T/C [33] 35% | viability, T/C [34] 33% | viability, T/C [35] 33.3% | viability, T/C [36] 29.7% | viability, T/C [37] 53.9% | viability, T/C [38] 36.8% | viability, T/C [39] 34.2% | viability, T/C [40] 31.6% | viability, T/C [41] 30.1% | viability, T/C [42] 24.1%
0.0409 µM: IC50 [6]
0.19 µM: IC50 [3]
0.0404 µM: IC50 [5]
3.49 µM: IC50 [2]
5.11 µM: IC50 [1]
